For assay [1], the system named is Rhizoctonia solani AG-1. In words: Fungicidal activity against rice sheath blight (RSB) disease, control value. The settings on record: for RSB control value (C.V.): 100 ppm, rice sheath blight.
Assay [2] concerns Phytophthora infestans. In words: whole plant or invertebrate. The settings on record: for TLB control value (C.V.): tomato late blight. Format: in vivo.
The test system of assay [3] is Botrytis cinerae. The assay can be described thus: Fungicidal activity against cucumber gray mold rot (CGM) disease, control value. Conditions: for pest or weed control at 100 ppm / CGM control value (C.V.): 100 ppm. Format: in vivo.
In assay [4] the test system is Puccinia recondita. In words: Fungicidal activity against wheat leaf rust (WLR) disease, control value. Format: in vivo.
The subject of assay [5] is Erysiphae graminis. The assay can be described thus: Fungicidal activity against barley powdery mildew (BPM) disease, control value. Format: in vivo.
In assay [6] the test system is Pyricularia oryzae Carvara KA301. In words: whole plant or invertebrate. Format: in vivo. Conditions: for pest or weed control at 2 ppm / pest or weed control at 10 ppm / pest or weed control at 50 ppm / pest or weed control at 100 ppm: Pyricularia oryzae, read-out: RCB control value (C.V.); for RCB control value (C.V.): rice blast.
Setting [7] is: Rhizoctonia solani, AG1, in Oryza sativa, read-out: RSB control value (C.V.).
Where [8] appears, read: Phytophthora infestans, in Solanum lycopersicum, read-out: TLB control value (C.V.).
Where [9] appears, read: Botrytis, read-out: CGM control value (C.V.).
[10] abbreviates: Puccinia recondita, 2 ppm, read-out: WLR control value (C.V.).
The mark [11] stands for this setting: Puccinia recondita, 10 ppm, read-out: WLR control value (C.V.).
The mark [12] stands for this setting: Puccinia recondita, 50 ppm, read-out: WLR control value (C.V.).
Where [13] appears, read: Puccinia recondita, 100 ppm, read-out: WLR control value (C.V.).
The mark [14] stands for this setting: 168 h, 2 ppm, read-out: BPM control value (C.V.).
The mark [15] stands for this setting: 168 h, 10 ppm, read-out: BPM control value (C.V.).
[16] abbreviates: 168 h, 50 ppm, read-out: BPM control value (C.V.).
Where [17] appears, read: 168 h, 100 ppm, read-out: BPM control value (C.V.).
[18] abbreviates: Botrytis, cucumber gray mold rot, read-out: CGM control value (C.V.).
Where [19] appears, read: 2 ppm, wheat leaf rust, read-out: WLR control value (C.V.).
[20] abbreviates: 10 ppm, wheat leaf rust, read-out: WLR control value (C.V.).
Where [21] appears, read: 50 ppm, wheat leaf rust, read-out: WLR control value (C.V.).
Where [22] appears, read: 100 ppm, wheat leaf rust, read-out: WLR control value (C.V.).
The mark [23] stands for this setting: Hordeum vulgare, 168 h, 2 ppm, barley powdery mildew, read-out: BPM control value (C.V.).
The mark [24] stands for this setting: Hordeum vulgare, 168 h, 10 ppm, barley powdery mildew, read-out: BPM control value (C.V.).
The mark [25] stands for this setting: Hordeum vulgare, 168 h, 50 ppm, barley powdery mildew, read-out: BPM control value (C.V.).
Setting [26] is: Hordeum vulgare, 168 h, 100 ppm, barley powdery mildew, read-out: BPM control value (C.V.).

Where two headings read alike, the source gives them in different places.

The record followed here is patent US8410302B2, “Methoxyimino compounds and fungicide composition comprising same” (Kyung Nong Corporation, priority 2007, dated 2013).

Consider `CCOc1cc(C=C(Br)Br)ccc1OCc1ccccc1/C(=N\OC)C(=O)OC` [Example 83, methyl-(E)-2-(2-((4-(2,2-dibromovinyl)-2-ethoxyphenoxy)methyl)phenyl)-2-methoxyiminoacetate], for which the pest or weed control at 2 ppm in assay [1] (setting [7]) was found to be 75%; in assay [2] (setting [8]), 70%; in assay [4] (setting [10]), 95%; in assay [5] (setting [14]), 95%; in assay [6], 50%. Also, the pest or weed control at 10 ppm is 98% in assay [1] (setting [7]); 90% in assay [2] (setting [8]); 100% in assay [4] (setting [11]); 100% in assay [5] (setting [15]); 90% in assay [6]. Further, the pest or weed control at 50 ppm was 100% in assay [1] (setting [7]); 98% in assay [2] (setting [8]); 100% in assay [4] (setting [12]); 100% in assay [5] (setting [16]); 100% in assay [6]. The pest or weed control at 100 ppm in assay [1] (setting [7]) was 100%; in assay [2] (setting [8]), 100%; in assay [3] (setting [9]), 50%; in assay [4] (setting [13]) it was 100%; in assay [5] (setting [17]), 100%; in assay [6] it was 100%.
For `CNC(=O)/C(=N/OC)c1ccccc1COc1cc(C=C(Cl)Cl)ccc1OC` [Example 48, (E)-2-(2-((5-(2,2-dichlorovinyl)-2-methoxyphenoxy)methyl)phenyl)-2-methoxyimino-N-methylacetamide], the pest or weed control at 2 ppm came out at 95% in assay [1] (setting [7]); 70% in assay [2] (setting [8]); 100% in assay [4] (setting [19]); 99% in assay [5] (setting [23]); 90% in assay [6]. Moreover, the pest or weed control at 10 ppm in assay [1] (setting [7]) was 98%; in assay [2] (setting [8]) it was 99%; in assay [4] (setting [20]) it was 100%; in assay [5] (setting [24]), 100%; in assay [6], 100%. Moreover, the pest or weed control at 50 ppm in assay [1] (setting [7]), in assay [2] (setting [8]), in assay [4] (setting [21]), in assay [5] (setting [25]) and in assay [6] was 100% throughout. The pest or weed control at 100 ppm was found to be 100% in assay [1] (setting [7]); 100% in assay [2] (setting [8]); 50% in assay [3] (setting [18]); 100% in assay [4] (setting [22]); 100% in assay [5] (setting [26]); 100% in assay [6].
For the compound `CO/N=C(/C(=O)OC)c1ccccc1CON=C(C)c1ccc(C=C(Cl)Cl)cc1` [Example 21, methyl-(E)-2-[[[[[2-[4-(2,2-dichlorovinyl)phenyl](1-methyl)methylidene]amino]oxy]methyl]phenyl]-2-methoxyiminoacetate], the “RSB control value (C.V.)” value in assay [1] worked out at 60%. In addition, the “TLB control value (C.V.)” value in assay [2] (2 ppm) is 0%; in assay [2] (10 ppm), 35%; in assay [2] (50 ppm), 95%; in assay [2] (100 ppm), 98%. Moreover, the “CGM control value (C.V.)” value in assay [3] (cucumber gray mold rot) was 50%. For the same compound, the “WLR control value (C.V.)” value in assay [4] (2 ppm, wheat leaf rust) is reported as 40%; in assay [4] (10 ppm, wheat leaf rust), 90%; in assay [4] (50 ppm, wheat leaf rust), 100%; in assay [4] (100 ppm, wheat leaf rust), 100%. In addition, the “BPM control value (C.V.)” value in assay [5] (2 ppm, barley powdery mildew) worked out at 20%; in assay [5] (10 ppm, barley powdery mildew) it was 50%; in assay [5] (50 ppm, barley powdery mildew), 95%; in assay [5] (100 ppm, barley powdery mildew) it was 95%. In addition, the “RCB control value (C.V.)” value was determined as 30% in assay [6] (2 ppm), 90% in assay [6] (10 ppm), 100% in assay [6] (50 ppm) and 100% in assay [6] (100 ppm).
As to `CO/N=C(/C(=O)OC)c1ccccc1CON=C(C)c1cccc(C=C(F)Cl)c1` [Example 31, methyl-(E)-2-[[[[[2-[3-(2-chloro-2-fluorovinyl)phenyl](1-methyl)methylidene]amino]oxy]methyl]phenyl]-2-methoxyiminoacetate], the “RSB control value (C.V.)” value in assay [1] was found to be 30%. Besides, in assay [2] (100 ppm), the “TLB control value (C.V.)” value is recorded as 60%. In assay [3] (cucumber gray mold rot), the “CGM control value (C.V.)” value stood at 43%. The “WLR control value (C.V.)” value in assay [4] (10 ppm, wheat leaf rust) is 40%; in assay [4] (50 ppm, wheat leaf rust) it was 90%; in assay [4] (100 ppm, wheat leaf rust), 100%. In addition, the “BPM control value (C.V.)” value in assay [5] (50 ppm, barley powdery mildew) was 60%; in assay [5] (100 ppm, barley powdery mildew), 90%. Besides, the “RCB control value (C.V.)” value in assay [6] (50 ppm) came out at 70%; in assay [6] (100 ppm), 95%.
On to `CNC(=O)/C(=N/OC)c1ccccc1COc1ccc(C=C(Cl)Cl)cc1` [Example 4, (E)-2-(2-((4-(2,2-dichlorovinyl)phenoxy)methyl)phenyl)-2-methoxyimino-N-methylacetamide], for which the pest or weed control at 2 ppm in assay [1] (setting [7]) was 90%; in assay [2] (setting [8]), 100%; in assay [4] (setting [19]), 100%; in assay [5] (setting [23]) it was 100%; in assay [6], 100%. In addition, the pest or weed control at 10 ppm in assay [1] (setting [7]) is 98%; in assay [2] (setting [8]) it was 100%; in assay [4] (setting [20]) it was 100%; in assay [5] (setting [24]) it was 100%; in assay [6] it was 100%. The pest or weed control at 50 ppm in assay [1] (setting [7]), in assay [2] (setting [8]), in assay [4] (setting [21]), in assay [5] (setting [25]) and in assay [6] was 100% in each case. Moreover, the pest or weed control at 100 ppm in assay [1] (setting [7]) is 100%; in assay [2] (setting [8]), 100%; in assay [3] (setting [18]), 75%; in assay [4] (setting [22]) it was 100%; in assay [5] (setting [26]), 100%; in assay [6], 100%.
`OC(c1ccc(Cl)cc1)(c1cncnc1)c1ccccc1Cl` (centres unmarked) [Fenarimol, reference compound]: the pest or weed control at 0.4 ppm in assay [1] (setting [7]) was found to be 30%; in assay [2] (setting [8]) it was 65%; in assay [3] (Botrytis, 0.4 ppm, read-out: CGM control value (C.V.)), 7%; in assay [4] (Puccinia recondita, 0.4 ppm, read-out: WLR control value (C.V.)), 15%; in assay [5] (168 h, 0.4 ppm, read-out: BPM control value (C.V.)), 95%. Moreover, the pest or weed control at 2 ppm in assay [1] (setting [7]) was determined as 40%; in assay [2] (setting [8]), 75%; in assay [3] (Botrytis, 2 ppm, read-out: CGM control value (C.V.)), 7%; in assay [4] (setting [10]) it was 80%; in assay [5] (setting [14]), 100%. Also, the pest or weed control at 10 ppm in assay [1] (setting [7]) worked out at 85%; in assay [2] (setting [8]), 80%; in assay [3] (Botrytis, 10 ppm, read-out: CGM control value (C.V.)) it was 7%; in assay [4] (setting [11]), 100%; in assay [5] (setting [15]), 100%; in assay [6] it was 0%. For the same compound, the pest or weed control at 50 ppm in assay [1] (setting [7]) came to 100%; in assay [2] (setting [8]), 95%; in assay [3] (Botrytis, 50 ppm, read-out: CGM control value (C.V.)), 30%; in assay [4] (setting [12]) it was 100%; in assay [5] (setting [16]), 100%; in assay [6] it was 20%.
Turning to `CO/N=C(/C(=O)OC)c1ccccc1COc1ccc(C=C(Br)Br)cc1C` [Example 65, methyl-(E)-2-(2-((4-(2,2-dibromovinyl)-2-methylphenoxy)methyl)phenyl)-2-methoxyiminoacetate], the pest or weed control at 2 ppm in assay [1] (setting [7]) turned out to be 97%; in assay [2] (setting [8]) it was 50%; in assay [4] (setting [10]), 100%; in assay [5] (setting [14]), 60%; in assay [6], 100%. Also, the pest or weed control at 10 ppm amounted to 100% in assay [1] (setting [7]); 80% in assay [2] (setting [8]); 100% in assay [4] (setting [11]); 95% in assay [5] (setting [15]); 100% in assay [6]. For the same compound, the pest or weed control at 50 ppm in assay [1] (setting [7]), in assay [2] (setting [8]), in assay [4] (setting [12]), in assay [5] (setting [16]) and in assay [6] was 100% in each case. Besides, the pest or weed control at 100 ppm in assay [1] (setting [7]) came to 100%; in assay [2] (setting [8]), 100%; in assay [3] (setting [9]), 35%; in assay [4] (setting [13]) it was 100%; in assay [5] (setting [17]), 100%; in assay [6], 100%.
